# Experiments:
# [1] = tested on: human glioblastoma (U87) grafted onto the chick embryo chorioallantoic membrane; assay: In ovo tumor angiogenesis, glioblastoma grafted onto chick embryo chorioallantoic membrane (CAM); format: in vivo; conditions: 50 μM, 20 μL on tumor every 24 hours
# Description: The effect of compound (1) on tumor angiogenesis was evaluated using the in ovo model based on human tumor grafted onto chick embryo chorioallantoic membrane (CAM).
# This experimental approach makes it possible in only a few days to evaluate the tumor's progression and level of vascularization.
# At the tenth day of embryonic development, glioblastoma cells (U87, 5×10^6 in 20 μL) were deposited on the chorioallantoic membrane. Two days after the graft, compound (1) at a concentration of 50 μM in a volume of 20 μL was deposited on the surface of the tumor formed. This treatment was repeated every 24 hours for 5 days. The control group was treated with solvent. The test was carried out on 20 eggs bearing glioblastoma tumors for each group. Images of the tumors were taken at day 3 (24 hours after treatment), at day 5 (3 days after treatment) and at day 7 (5 days after treatment) of tumor development. […] In order to determine the antiangiogenic mechanism of compound (1), VEGF was assayed by the ELISA method (Invitrogen, Novex technology), from the culture supernatant of U87 and HCT-116 cells, under normoxic and hypoxic conditions.
# [2] = EPR competition with BMPO, superoxide anion from xanthine/xanthine oxidase (aqueous phase); format: biochemical; conditions: xanthine oxidase 53 mU/mL + xanthine 250 μM in PBS pH 7.4, BMPO 50 mM, 10 minutes of incubation; read-out: IC50, inhibition of the formation of the BMPO superoxide adduct
# Description: The reactivity of compound (1) with superoxide anion in the aqueous phase was also studied by EPR at room temperature using the same competition method with the trapping reagent BMPO at 50 mM (FIG. 1B). In this case, superoxide anion is produced by enzymatic reaction of xanthine oxidase (XO, 53 mU/mL) with xanthine (X, 250 μM) in PBS (pH 7.4) containing 0.1 mM ethylenediaminetetraacetic acid (EDTA). The concentrations used for compound (1) are between 0.34 μM and 43.1 μM. These experiments were carried out with an ELEXSYS E500 EPR spectrometer (Bruker, Wissembourg, France), operating at a frequency of 9.82 GHz (X-band) with the following parameters: magnetic field: 349.0 ±6.6 mT; sweep time: 41.94 s; sampling: 1024 points; time constant: 40.96 ms; conversion time: 40.96 ms; modulation amplitude: 0.10 mT; modulation frequency: 100 kHz; gain: 60 dB; microwave power: 10 mW.
compound,measurement,setting,value
OCCCn1cc(-c2ccccc2)c(-c2ccc(O)c(O)c2)c1 [compound (1)],tumor vascularization,"[1]; after 3 treatments (day 5), also day 7, vs control group",inhibition of tumor vascularization
same,growth of the treated tumor,[1]; day 7,significant inhibition of the growth of the treated tumor
same,IC50,[2],3.2 µM

# Reference: patent publication US10233151B2, “Use of a novel 3-aryl-4-catechol-pyrrole-N-propanol compound and the derivatives thereof to treat cancer and diseases related to excessive angiogenesis” (Centre National de la Recherche Scientifique (CNRS), priority 2014, dated 2019)
